Measured values published in article PMC12526212, “Novel Isolongifolenone-Based Caprolactam Derivatives as Potential Anticancer Agents via the p53/mTOR/Autophagy Pathway” (Molecules, 2025).
Like-named read-outs stand apart in the source and are kept apart here.

How the values were obtained:
[1] = test system: MCF-7 xenograft; experiment: Zebrafish MCF-7 xenograft model; assay type: in vivo; conditions: 48 h, compared with PBS control; Dox 1.0 μM
Description: Zebrafish have become a well-established model for both anticancer drug discovery and toxicity evaluation. This animal model affords several unique advantages, including rapid development, optical transparency, and genetic conservation with humans. These features make zebrafish particularly suitable for high-throughput in vivo screening and mechanistic studies in oncology research. Tumor burden in zebrafish xenografts is commonly quantified from Dil/DiI-labeled fluorescence area or integrated intensity, which correlates with cell number and treatment response. To assess the in vivo antitumor efficacy of compound E10, we established a zebrafish xenograft model. Briefly, CM-Dil-labeled MCF-7 cells (showing red fluorescence) were microinjected into the yolk sacs of zebrafish embryos. The xenografted zebrafish were then randomly assigned into five groups: three E10-treatment groups (0.5 µg/mL, 1.0 µg/mL, and 2.0 µg/mL), a Doxorubicin (Dox) positive control group, and a PBS negative control group.
All experimental procedures were approved by ACUC of Shandong Academy of Sciences (Animal Care and Use Committee). Wild-type AB of zebrafish were obtained from Biology Institute, Qilu University of Technology. The embryos were incubated in special embryonic medium (0.17 mM KCl, 5.0 mM NaCl, 0.4 mM CaCl2, and 0.16 mM MgSO4) at 28 °C. 48 h-old zebrafish embryos were microinjected with CM-Dil labelled MCF-7 cells under stereomicroscopy. After injection, zebrafish embryos with the same injection spot were randomly planted on a six-well plate. These xenograft zebrafish were sorted into four groups of about 15–20 zebrafish each and treated with 0.5, 1.0, 2.0 μg/mL of compound E10 for 48 h, 1.0 μM doxorubicin as a positive control group. After treatment, the fluorescence intensity of living cells was examined with laser confocal microscopy (Olympus, Tokyo, Japan).

[2] = test system: MCF-7; experiment: CCK-8 antiproliferative assay, MCF-7; assay type: cell-based; conditions: Homo sapiens, read-out: IC50 MCF-7
Experimental: (§1) After synthesis and characterization, the isolongifolenone bicyclocaprolactam derivatives were evaluated for their in vitro antiproliferative activity against three cancer cell lines (MCF-7, HepG2, A549) using a CCK-8 assay. […] In general, the antiproliferative activities of most of these compounds were similar, irrespective of whether electron-withdrawing or electron-donating substituents were introduced in the phenoxy ring.
(§2) Three cancer cell lines (human breast adenocarcinoma cells MCF-7, human lung adenocarcinoma epithelial cells A549, and human hepatocellular carcinoma cells HepG2) were obtained from the Cell Bank of the Chinese Academy of Sciences (Shanghai, China). LO2 human normal liver cells were also purchased from STEM RECELL (Beijing, China, STM-CL-5770). The anti-proliferation activity of compounds was tested on three cancer cell lines. The cytotoxicity of compounds as tested on normal cell line (human normal liver cells LO2). Cells were seeded at a density of 5000 cells per well in 96-well plates. Natural product piperlongumine was used as the positive control. All experiments were performed in triplicate. Three cancer cell lines were cultured in High DMEM medium or RIPM 1640 containing 10% FBS (Sijiqing, Hangzhou, China) and 1% antibiotics at 37 °C in a 5% CO2 incubator. The experimental cells were seeded in a 96-well plate at 5000 cells per well and incubated for 24 h. The old medium was replaced with experimental medium, and the cells were cultured for 48 h. Afterward, 10 µL of CCK-8 solution was added to each well, and the cells were incubated for 3 h. The absorbance at 450 nm was measured using a microplate reader.

[3] = test system: HepG2; experiment: CCK-8 antiproliferative assay, HepG2; assay type: cell-based; conditions: Homo sapiens, read-out: IC50 HepG2
Experimental: as §1, §2

[4] = test system: A549; experiment: CCK-8 antiproliferative assay, A549; assay type: cell-based; conditions: Homo sapiens, read-out: IC50 A549
Experimental: as §1, §2

[5] = test system: LO2; experiment: CCK-8 cytotoxicity on normal cell line LO2; assay type: cell-based; conditions: Homo sapiens, L02; normal liver cells, CCK-8, 48 h, mean ± SD of three experiments
Experimental: as §2

[6] = test system: three cancer cell lines (MCF-7, HepG2, A549); experiment: CCK-8 antiproliferative assay, three cancer cell lines together; assay type: cell-based, human
Experimental: as §1, §2

[7] = MCF7, CCK-8, 48 h, mean ± SD of three experiments
[8] = HepG2, CCK-8, 48 h, mean ± SD of three experiments
[9] = A549, CCK-8, 48 h, mean ± SD of three experiments

IC50 [2, 7] | IC50 [3, 8] | IC50 [4, 9] | Compound | fluorescence intensity of xenograft [1] | IC50 [5] | antiproliferative / anticancer activity [6] | IC50 ([2]; MCF7, 48 h) | IC50 ([3]; HepG2, 48 h) | IC50 ([4]; A549, 48 h)
– | – | – | COc1cccc2c1C(=O)c1c(O)c3c(c(O)c1C2=O)C[C@@](O)(C(=O)CO)C[C@@H]3O[C@H]1C[C@H](N)[C@H](O)[C@H](C)O1 [Dox, Doxorubicin, reference compound] | notable reduction in fluorescence intensity | – | – | – | – | –
9.18 ± 0.11 µM | > 20 µM | 11.7 ± 0.16 µM | CC1(C)C2=CC(=O)N(C(=O)C=Cc3ccc(F)cc3)CC(C)(C)C23CCC1C3 (stereo not drawn) [E1, 5,5,9,9-Tetramethyl-3-(3-(4-fluorophenyl)acryloyl)-4,5,6,7,8,9-hexahydro-5a,8-methanobenzo[d]azepin-2(3H)-one] | – | > 20 µM | – | – | – | –
1.29 ± 0.04 µM | 6.6 ± 0.07 µM | 3.18 ± 0.16 µM | Cc1ccc(C=CC(=O)N2CC(C)(C)C34CCC(C3)C(C)(C)C4=CC2=O)cc1 (stereo not drawn) [E2, 5,5,9,9-Tetramethyl-3-(3-(4-tolyl)acryloyl)-4,5,6,7,8,9-hexahydro-5a,8-methanobenzo[d]azepin-2(3H)-one] | – | > 20 µM | – | – | – | –
18.97 ± 0.13 µM | 7.09 ± 0.33 µM | 16.9 ± 0.27 µM | CC1(C)C2=CC(=O)N(C(=O)C=Cc3ccc(Cl)cc3)CC(C)(C)C23CCC1C3 (stereo not drawn) [E3, 5,5,9,9-Tetramethyl-3-(3-(4-chlorophenyl)acryloyl)-4,5,6,7,8,9-hexahydro-5a,8-methanobenzo[d]azepin-2(3H)-one] | – | > 20 µM | – | – | – | –
16.74 ± 0.16 µM | > 20 µM | 14.98 ± 0.1 µM | CC1(C)C2=CC(=O)N(C(=O)C=Cc3ccc(C(F)(F)F)cc3)CC(C)(C)C23CCC1C3 (stereo not drawn) [E4, 5,5,9,9-Tetramethyl-3-(3-(4-(trifluoromethyl)phenyl)acryloyl)-4,5,6,7,8,9-hexahydro-5a,8-methanobenzo[d]azepin-2(3H)-one] | – | > 20 µM | – | – | – | –
2.86 ± 0.12 µM | 1.86 ± 0.09 µM | 3.89 ± 0.44 µM | Cc1ccccc1C=CC(=O)N1CC(C)(C)C23CCC(C2)C(C)(C)C3=CC1=O (stereo not drawn) [E5, 5,5,9,9-Tetramethyl-3-(3-(2-tolyl)acryloyl)-4,5,6,7,8,9-hexahydro-5a,8-methanobenzo[d]azepin-2(3H)-one] | – | > 20 µM | – | – | – | –
5.32 ± 0.11 µM | 5.96 ± 0.05 µM | 5.34 ± 0.16 µM | CC1(C)C2=CC(=O)N(C(=O)C=Cc3cccc(F)c3)CC(C)(C)C23CCC1C3 (stereo not drawn) [E6, 5,5,9,9-Tetramethyl-3-(3-(3-fluorophenyl)acryloyl)-4,5,6,7,8,9-hexahydro-5a,8-methanobenzo[d]azepin-2(3H)-one] | – | > 20 µM | – | – | – | –
2.67 ± 0.11 µM | 6.67 ± 0.06 µM | 2.28 ± 0.1 µM | CC1(C)C2=CC(=O)N(C(=O)C=Cc3cccc(Cl)c3)CC(C)(C)C23CCC1C3 (stereo not drawn) [E7, 5,5,9,9-Tetramethyl-3-(3-(3-chlorophenyl)acryloyl)-4,5,6,7,8,9-hexahydro-5a,8-methanobenzo[d]azepin-2(3H)-one] | – | > 20 µM | – | – | – | –
2.22 ± 0.07 µM | 2.17 ± 0.24 µM | 2.13 ± 0.16 µM | COc1ccccc1C=CC(=O)N1CC(C)(C)C23CCC(C2)C(C)(C)C3=CC1=O (stereo not drawn) [E9, 5,5,9,9-Tetramethyl-3-(3-(2-methoxyphenyl)acryloyl)-4,5,6,7,8,9-hexahydro-5a,8-methanobenzo[d]azepin-2(3H)-one] | – | > 20 µM | – | – | – | –
5.63 ± 0.3 µM | 4.53 ± 0.12 µM | 18.3 ± 0.21 µM | CC1(C)C2=CC(=O)N(C(=O)C=Cc3ccccc3C(F)(F)F)CC(C)(C)C23CCC1C3 (stereo not drawn) [E11, 5,5,9,9-Tetramethyl-3-(3-(2-(trifluoromethyl)phenyl)acryloyl)-4,5,6,7,8,9-hexahydro-5a,8-methanobenzo[d]azepin-2(3H)-one] | – | > 20 µM | – | – | – | –
1.26 ± 0.19 µM | 4.89 ± 0.52 µM | 3.55 ± 0.04 µM | CC1(C)C2=CC(=O)N(C(=O)C=Cc3cccc(Br)c3)CC(C)(C)C23CCC1C3 (stereo not drawn) [E12, 5,5,9,9-Tetramethyl-3-(3-(3-bromophenyl)acryloyl)-4,5,6,7,8,9-hexahydro-5a,8-methanobenzo[d]azepin-2(3H)-one] | – | 11.26 ± 0.06 µM | – | – | – | –
2.12 ± 0.04 µM | 2.67 ± 0.16 µM | 4.64 ± 0.06 µM | CC1(C)C2=CC(=O)N(C(=O)C=Cc3ccccc3Br)CC(C)(C)C23CCC1C3 (stereo not drawn) [E13, 5,5,9,9-Tetramethyl-3-(3-(2-bromophenyl)acryloyl)-4,5,6,7,8,9-hexahydro-5a,8-methanobenzo[d]azepin-2(3H)-one] | – | > 20 µM | – | – | – | –
1.27 ± 0.04 µM | 2.38 ± 0.16 µM | 3.21 ± 0.16 µM | CC1(C)C2=CC(=O)N(C(=O)C=Cc3ccc(Br)cc3)CC(C)(C)C23CCC1C3 (stereo not drawn) [E14, 5,5,9,9-Tetramethyl-3-(3-(4-bromophenyl)acryloyl)-4,5,6,7,8,9-hexahydro-5a,8-methanobenzo[d]azepin-2(3H)-one] | – | > 20 µM | – | – | – | –
1.58 ± 0.16 µM | 2.09 ± 0.16 µM | 3.47 ± 0.16 µM | CC1(C)C2=CC(=O)N(C(=O)C=Cc3ccccc3Cl)CC(C)(C)C23CCC1C3 (stereo not drawn) [E15, 5,5,9,9-Tetramethyl-3-(3-(2-chlorophenyl)acryloyl)-4,5,6,7,8,9-hexahydro-5a,8-methanobenzo[d]azepin-2(3H)-one] | – | > 20 µM | – | – | – | –
2.67 ± 0.18 µM | 2.44 ± 0.16 µM | 5.28 ± 0.1 µM | COc1ccc(C=CC(=O)N2CC(C)(C)C34CCC(C3)C(C)(C)C4=CC2=O)cc1 (stereo not drawn) [E16, 5,5,9,9-Tetramethyl-3-(3-(4-methoxyphenyl)acryloyl)-4,5,6,7,8,9-hexahydro-5a,8-methanobenzo[d]azepin-2(3H)-one] | – | > 20 µM | – | – | – | –
2.16 ± 0.03 µM | 2.56 ± 0.16 µM | 5.28 ± 0.08 µM | COc1ccc(C=CC(=O)N2CC(C)(C)C34CCC(C3)C(C)(C)C4=CC2=O)cc1OC (stereo not drawn) [E17, 5,5,9,9-Tetramethyl-3-(3-(3,4-dimethoxyphenyl)acryloyl)-4,5,6,7,8,9-hexahydro-5a,8-methanobenzo[d]azepin-2(3H)-one] | – | > 20 µM | good anticancer activity | – | – | –
> 20 µM | > 20 µM | > 20 µM | CC1(C)C2=CC(=O)N(C(=O)C=Cc3cccnc3)CC(C)(C)C23CCC1C3 (stereo not drawn) [E18, 5,5,9,9-Tetramethyl-3-(3-(pyridin-3-yl)acryloyl)-4,5,6,7,8,9-hexahydro-5a,8-methanobenzo[d]azepin-2(3H)-one] | – | > 20 µM | entirely lost | – | – | –
17.07 ± 0.06 µM | 18.43 ± 0.16 µM | 18.9 ± 0.16 µM | CC1(C)C2=CC(=O)N(C(=O)C=Cc3ccc(F)c(F)c3)CC(C)(C)C23CCC1C3 (stereo not drawn) [E19, 5,5,9,9-Tetramethyl-3-(3-(3,4-difluorophenyl)acryloyl)-4,5,6,7,8,9-hexahydro-5a,8-methanobenzo[d]azepin-2(3H)-one] | – | > 20 µM | good anticancer activity | – | – | –
– | – | – | COc1cc(/C=C/C(=O)N2CCC=CC2=O)cc(OC)c1OC [PL, Piperlongumine, reference compound] | – | – | – | 2.79 ± 0.43 µM | 3.46 ± 0.25 µM | 5.83 ± 0.26 µM
